Assay results from publication PMC12337082 (Journal of Biochemical and Molecular Toxicology, 2025).

Tests used:
[1] = system: COX‐2; test: Western blot COX‐2 protein expression, MDA‐MB‐231; assay type: cell-based, human; conditions: 24 h
Method: (§1) Total protein levels were measured using the Take3 Multi‐Volume Plate (Synergy H1, BioTek Instruments Inc., Vermont, USA). In accordance with the classical protocol, transferred proteins were exposed to the following primary antibodies: Beta‐actin (NB600‐501, Novus Biologicals), Bax (SPM336, NBP2‐32809), Bcl‐2 (100/D5, NBP2‐15200), cleaved PARP (194C1439, NBP2‐27335), and COX‐2 (D‐12:sc‐166475, Santa Cruz). The bands were visualized with chemiluminescent HRP substrates (Western Bright ECL‐Advansta, K‐12045‐050). Using a chemiluminescence imaging system (Celvin S, BioStep), the relative quantification was done based on the level of β‐actin proteins.

[2] = system: MCF‐7; test: MTT cell viability assay, MCF‐7; assay type: cell-based, human; conditions: for IC50: Homo sapiens, MCF7, MTT
Text: (§2) MCF‐7, MDA‐MB‐231, and L‐929 mouse fibroblast cell lines were obtained from the American Type Culture Collection (ATCC, Manassas, Virginia, USA). MCF‐7 is a hormone‐responsive, differentiated mammary epithelium cell line with an ER+, PR+, and HER2‐ pattern (ATCC, HTB‐22). MDA‐MB‐231 is a triple‐negative differentiated mammary epithelium cell line (ATCC, HTB‐26). The L‐929 mouse fibroblast cell line is derived from the normal subcutaneous connective tissue of a mouse and is commonly used in cytotoxicity assays (ATCC, CCL‐1). All cell lines were cultured in DMEM medium (Dulbecco's Modified Eagle Medium, Gibco), supplemented with 10% fetal bovine serum (Gibco), 1% glutamine, and penicillin/streptomycin (Gibco) in a humidified atmosphere containing 5% CO2 at 37°C. Cell viability was tested using Trypan blue staining.
(§3) The MTT [3‐(4,5‐dimethylthiazol‐2‐yl)−2,5‐diphenyltetrazolium bromide] assay is a colorimetric assay for determining cell metabolic activity. In the MTT assay, the yellow dye MTT that dissolves in water is changed by mitochondrial reductase into a purple formazan that is non‐soluble. The water‐insoluble formazan produced is solubilized in a solubilization buffer, and absorbances are detected.
(§4) In 96‐well plates, the cells were cultivated at a density of 5 × 10^3 cells/well using 100 µL medium. […] 10 μL of the MTT labeling reagent (final concentration 0.5 mg/mL) were added to each well at the end of the incubation periods, and the wells were incubated for an additional 4 h. Next, each well received 100 μL of solubilization buffer (10% SDS in 0.01 M HCl) and was overnight incubated, and the absorbance of formazan products was evaluated at 550 nm using a multi‐mode microplate reader (Synergy H1, Biotech Instruments Inc., Vermont, USA). The results were normalized relative to the absorbances of calculated percent concentrations of DMSO. All tests involved three replicates with three independent experiments.
(§5) All statistical evaluations, including t‐tests and IC50 values, were calculated using the GraphPad Prism software tool (v6.0, GraphPad Software Inc., San Diego, USA). Statistical significance was defined as p ˂ 0.05 (*p < 0.05, **p < 0.01, ***p < 0.001, ****p < 0.0001).

[3] = system: MDA‐MB‐231; test: MTT cell viability assay, MDA‐MB‐231; assay type: cell-based, human; conditions: for IC50: MTT
Text: as §2, §3, §4, §5

[4] = system: PGE2 release; test: PGE2 ELISA, MCF‐7; assay type: cell-based, human; conditions: Homo sapiens, MCF7; MCF‐7, 50 µM, 24 h
Method: (§6) PGE2 ELISA kit (ENZO, ADI‐900‐001) was used to determine prostaglandin synthesis levels. MCF‐7 and MDA‐MB‐231 breast cancer cells were cultured at a density of 1 × 10^6 cells/well in a 6‐well culture dish. […] Following 24 h of incubation, the medium was replaced with a fresh one, 10 µM arachidonic acid was added, and it was further incubated for 1 h. The PGE2 levels were determined according to the kit protocol.

[5] = system: MDA‐MB‐231; test: Mitochondrial membrane potential (JC‐1) apoptosis assay, MDA‐MB‐231; assay type: cell-based, human; conditions: MDA‐MB‐231, 50 μM, 24 h, MMP assay
Method: (§7) Apoptosis was also investigated by evaluating mitochondrial membrane potential changes (MMP assay). MCF‐7, MDA‐MB‐231, and L‐929 cells were stained with JC‐1 dye according to the manufacturer's protocols (JC‐1 MMP Assay Kit, KA1324, Abnova). The apoptotic to healthy cell ratio was calculated using absorbances collected from two different fluorescence channels (535/595 for healthy cells, 485/535 for apoptotic cells) (Synergy H1, Biotech Instruments Inc., Vermont, USA).

[6] = system: PGE2 release; test: PGE2 ELISA, MDA‐MB‐231; assay type: cell-based, human; conditions: Homo sapiens; MDA‐MB‐231, 50 µM, 24 h
Method: as §6

[7] = system: L‐929 mouse fibroblast cell line; test: MTT cell viability assay, L‐929 control fibroblasts; assay type: cell-based
Text: as §2, §3, §4, §5

[8] = system: c‐PARP; test: Western blot cleaved PARP, MDA‐MB‐231; assay type: cell-based, human; conditions: MDA‐MB‐231, 24 h, all concentrations (50 and 75 µM); not measurable in MCF‐7
Method: as §1

[9] = system: MCF‐7; test: Mitochondrial membrane potential (JC‐1) apoptosis assay, MCF‐7; assay type: cell-based, human; conditions: MCF‐7, 50 μM, 24 h, MMP assay
Method: as §7

[10] = system: COX‐2; test: Western blot COX‐2 protein expression, MCF‐7; assay type: cell-based, human; conditions: 24 h
Method: as §1

[11] = system: L‐929; test: Mitochondrial membrane potential (JC‐1) apoptosis assay, L‐929; assay type: cell-based, mouse; conditions: L‐929, 50 μM, 24 h, MMP assay
Method: as §7

CCc1cccc2c3c([nH]c12)C(CC)(CC(=O)N/N=C/c1ccc(OC)cc1)OCC3 (racemic) [SGK 206, 2‐(1,8‐Diethyl‐1,3,4,9‐tetrahydropyrano[3,4‐b]indole‐1‐yl) acetic acid[(4‐methoxyphenyl)methylene]acetohydrazide]
Decrease in COX‐2 protein expression compared to the control group ([1]; MDA‐MB‐231, 50 µM): 16% | Decrease in COX‐2 protein expression compared to the control group ([1]; MDA‐MB‐231, 75 µM): 37% | IC50 ([2]; MCF‐7, 24 h): 37 ± 1.74 µM | IC50 ([2]; MCF‐7, 48 h): 34 ± 5.7 µM | IC50 ([2]; MCF‐7, 72 h): 26 ± 0.66 µM | Selectivity index (SI) ([2]; MCF‐7 in comparison to L‐929, 24 h): 1.93 | Selectivity index (SI) ([2]; MCF‐7 in comparison to L‐929, 48 h): 1.4 | Selectivity index (SI) ([2]; MCF‐7 in comparison to L‐929, 72 h): 1.91 | IC50 ([3]; Homo sapiens, MDA-MB-231, 24 h, MDA‐MB‐231, 24 h): 43 µM | IC50 ([3]; Homo sapiens, MDA-MB-231, 48 h, MDA‐MB‐231, 48 h): 38 ± 2.3 µM | IC50 ([3]; Homo sapiens, MDA-MB-231, 72 h, MDA‐MB‐231, 72 h): 36 ± 3.19 µM | IC50 ([3]; MDA‐MB‐231, 24 h): 43.2 ± 1.94 µM | Selectivity index (SI) ([3]; MDA‐MB‐231 in comparison to L‐929, 24 h): 1.65 | Selectivity index (SI) ([3]; MDA‐MB‐231 in comparison to L‐929, 48 h): 1.26 | Selectivity index (SI) ([3]; MDA‐MB‐231 in comparison to L‐929, 72 h): 1.38 | inhibition at 50 µM [4]: 90% | Increase in apoptosis compared to the control group [5]: 57% | inhibition at 50 µM [6]: 91% | IC50 ([7]; L‐929, 24 h): 71.3 ± 2.92 µM | IC50 ([7]; L‐929, 48 h): 47.9 ± 1.2 µM | IC50 ([7]; L‐929, 72 h): 49.7 ± 1.64 µM | IC50 ([7]; Mus musculus, L929, 24 h, L‐929, 24 h): 71 µM | IC50 ([7]; Mus musculus, L929, 48 h, L‐929, 48 h): 47 µM | IC50 ([7]; Mus musculus, L929, 72 h, L‐929, 72 h): 49 µM | c‐PARP (89‐kD fragment) protein change [8]: consistent activation | Increase in apoptosis compared to the control group [9]: 48% | Decrease in COX‐2 protein expression compared to the control group ([10]; MCF‐7, 50 µM): 30% | Decrease in COX‐2 protein expression compared to the control group ([10]; MCF‐7, 75 µM): 41% | Increase in apoptosis compared to the control group [11]: 8%
